From patent US11180657B2, “Polysulfonated fluorescence dyes” (ATTO-TEC GmbH, priority 2017, dated 2021) come the findings set out here.

Series [1] can be described thus: Absorption maximum of the dye. The series is classed as physicochemical. An excerpt: (§1) Examples of the compounds according to the invention are listed in Tables 2-6, where the structures as well as the absorption and fluorescence maxima are indicated. The spectra of selected compounds are shown FIGS. 5-18.
Series [2] is described as follows: Fluorescence maximum of the dye. The series is classed as physicochemical. Conditions: solvent PBS pH 7.4.
Source text: as §1

Molecules are shown by their SMILES. Marks after values point to notes of the source that are not given here.

Regarding `O=C(O)c1ccccc1-c1c2cc/c(=N/CS(=O)(=O)O)c(S(=O)(=O)O)c-2oc2c(S(=O)(=O)O)c(NCS(=O)(=O)O)ccc12` [Compound 1], the λabs in series [1] (solvent water/acetonitrile 1:1) is 533^c nm. For the same compound, the λfl in series [2] is 554^b nm.

For the compound `CCN(Cc1ccccc1S(=O)(=O)O)c1ccc2c(-c3ccccc3C(=O)O)c3cc/c(=[N+](\CC)Cc4ccccc4S(=O)(=O)O)cc-3oc2c1` [Compound 2], the λabs in series [1] (solvent water/acetonitrile 1:1) was 554^c nm. The λfl in series [2] is 584^b nm.

Take `CCN(Cc1ccc(S(=O)(=O)O)cc1S(=O)(=O)O)c1ccc2c(-c3ccccc3C(=O)O)c3cc/c(=[N+](\CC)Cc4ccc(S(=O)(=O)O)cc4S(=O)(=O)O)cc-3oc2c1` [Compound 3]: in series [1] (solvent water/acetonitrile 1:1), the λabs is 550^c nm. For the same compound, in series [2], the λfl is 583^b nm.

In the case of `O=C(O)c1ccccc1-c1c2cc/c(=N/Cc3ccc(S(=O)(=O)O)cc3S(=O)(=O)O)cc-2oc2cc(NCc3ccc(S(=O)(=O)O)cc3S(=O)(=O)O)ccc12` [Compound 4], the λabs in series [1] (solvent water/acetonitrile 1:1) is given as 536^c nm. Besides, in series [2], the λfl is 559^b nm.

Turning to `CCN(Cc1ccc(S(=O)(=O)O)cc1S(=O)(=O)O)c1ccc2c(-c3ccccc3C(=O)N(C)CCCC(=O)O)c3cc/c(=[N+](\CC)Cc4ccc(S(=O)(=O)O)cc4S(=O)(=O)O)cc-3oc2c1` [Compound 5], the λabs in series [1] (solvent water/acetonitrile 1:1) is 560^c nm. In series [2], the λfl was 584^b nm.

As to `CN(CCCC(=O)ON1C(=O)CCC1=O)C(=O)c1ccccc1-c1c2cc(S(=O)(=O)O)/c(=N/Cc3ccc(S(=O)(=O)O)cc3S(=O)(=O)O)cc-2oc2cc(NCc3ccc(S(=O)(=O)O)cc3S(=O)(=O)O)c(S(=O)(=O)O)cc12` [Compound 7], the λabs in series [1] (solvent water/acetonitrile 1:1) was 534^c nm. Besides, the λfl in series [2] is recorded as 559^b nm.

For the compound `CN(CCCC(=O)O)C(=O)c1ccccc1-c1c2ccc(=[N+](Cc3ccc(S(=O)(=O)O)cc3S(=O)(=O)O)Cc3ccc(S(=O)(=O)O)cc3S(=O)(=O)O)cc-2oc2cc(N(Cc3ccc(S(=O)(=O)O)cc3S(=O)(=O)O)Cc3ccc(S(=O)(=O)O)cc3S(=O)(=O)O)ccc12` [Compound 9], in series [1] (solvent water/acetonitrile 1:1), the λabs is reported as 550^c nm. Also, in series [2], the λfl is reported as 572^b nm.

For the compound `CN(CCCC(=O)O)C(=O)c1ccccc1-c1c2cc/c(=N/Cc3ccc(S(=O)(=O)O)cc3S(=O)(=O)O)cc-2oc2cc(NCc3ccc(S(=O)(=O)O)cc3S(=O)(=O)O)ccc12` [Compound 13], in series [1] (solvent water/acetonitrile 1:1), the λabs is on record as 534^c nm. Also, the λfl in series [2] is 555^b nm.

Regarding `O=C(O)c1ccccc1-c1c2cc/c(=N/CCc3ccc(S(=O)(=O)O)cc3)cc-2oc2cc(NCCc3ccc(S(=O)(=O)O)cc3)ccc12` [Compound 18], the λabs in series [1] (solvent water/acetonitrile 1:1) is 530^c nm. In addition, in series [2], the λfl is recorded as 551^b nm.

On to `CN(CCCC(=O)O)C(=O)c1ccccc1-c1c2cc/c(=N/CCc3ccc(S(=O)(=O)O)cc3)cc-2oc2cc(NCCc3ccc(S(=O)(=O)O)cc3)ccc12` [Compound 21], for which the λabs in series [1] (solvent water/acetonitrile 1:1) is listed as 538^c nm. The λfl in series [2] was 559^b nm.

Take `CN(CCCC(=O)O)C(=O)c1ccccc1-c1c2cc(S(=O)(=O)O)/c(=N/CCc3ccc(S(=O)(=O)O)cc3)cc-2oc2cc(NCCc3ccc(S(=O)(=O)O)cc3)ccc12` [Compound 22]: the λabs in series [1] (solvent water/acetonitrile 1:1) was 536^c nm. In series [2], the λfl is on record as 558^b nm.

`O=C(O)c1ccccc1-c1c2cc/c(=N/CCc3ccc(S(=O)(=O)O)cc3S(=O)(=O)O)cc-2oc2cc(NCCc3ccc(S(=O)(=O)O)cc3S(=O)(=O)O)ccc12` [Compound 23]: the λabs in series [1] (solvent water/acetonitrile 1:1) was 532^c nm. Further, the λfl in series [2] is recorded as 559^b nm.

Consider `CN(CCCC(=O)O)C(=O)c1ccccc1-c1c2cc/c(=N/CCc3ccc(S(=O)(=O)O)cc3S(=O)(=O)O)cc-2oc2cc(NCCc3ccc(S(=O)(=O)O)cc3S(=O)(=O)O)ccc12` [Compound 24], for which the λabs in series [1] (solvent water/acetonitrile 1:1) is on record as 539^c nm. The λfl in series [2] is recorded as 561^b nm.

For the compound `CN(CCCC(=O)O)C(=O)c1ccccc1C1=c2cc3c(cc2Oc2cc4c(cc21)CCCN4Cc1ccc(S(=O)(=O)O)cc1S(=O)(=O)O)=[N+](Cc1ccc(S(=O)(=O)O)cc1S(=O)(=O)O)CCC3` [Compound 28], the λabs in series [1] (solvent water/acetonitrile 1:1) is 567^c nm.

On to `CN(CCCC(=O)O)C(=O)c1ccccc1-c1c2cc/c(=N/Cc3ccc(S(=O)(=O)O)cc3S(=O)(=O)O)c(S(=O)(=O)O)c-2oc2c(S(=O)(=O)O)c(NCc3ccc(S(=O)(=O)O)cc3S(=O)(=O)O)ccc12` [Compound 29], for which, in series [1] (solvent water/acetonitrile 1:1), the λabs is given as 531^c nm.

For the compound `O=C(O)CN(CCS(=O)(=O)O)C(=O)c1ccccc1-c1c2cc/c(=N/Cc3ccc(S(=O)(=O)O)cc3S(=O)(=O)O)c(S(=O)(=O)O)c-2oc2c(S(=O)(=O)O)c(NCc3ccc(S(=O)(=O)O)cc3S(=O)(=O)O)ccc12` [Compound 30], the λabs in series [1] (solvent water/acetonitrile 1:1) is 536^c nm.

For `CN(CCCC(=O)O)C(=O)c1ccccc1-c1c2cc/c(=N/Cc3ccc(S(=O)(=O)O)cc3S(=O)(=O)O)c(S(=O)(=O)O)c-2oc2c(S(=O)(=O)O)c(NCc3ccc(S(=O)(=O)O)cc3S(=O)(=O)O)ccc12.CS(=O)(=O)O` [Compound 31], the λabs in series [1] (solvent water/acetonitrile 1:1) is listed as 532^c nm.

For the compound `CN(CCCC(=O)O)C(=O)c1c(-c2c3cc/c(=N/Cc4ccc(S(=O)(=O)O)cc4S(=O)(=O)O)c(S(=O)(=O)O)c-3oc3c(S(=O)(=O)O)c(NCc4ccc(S(=O)(=O)O)cc4S(=O)(=O)O)ccc23)cc(S(=O)(=O)O)cc1S(=O)(=O)O` [Compound 32], in series [1] (solvent water/acetonitrile 1:1), the λabs was 530^c nm.

On to `CN(CCCC(=O)O)C(=O)c1cc2ccccc2cc1-c1c2cc/c(=N/Cc3ccc(S(=O)(=O)O)cc3S(=O)(=O)O)c(S(=O)(=O)O)c-2oc2c(S(=O)(=O)O)c(NCc3ccc(S(=O)(=O)O)cc3S(=O)(=O)O)ccc12.CS(=O)(=O)O.CS(=O)(=O)O` [Compound 33], for which the λabs in series [1] (solvent water/acetonitrile 1:1) is 539^c nm.

For `CN(CCCC(=O)O)C(=O)c1ccccc1-c1c2cc/c(=N/Cc3cc(S(=O)(=O)O)c4cc(S(=O)(=O)O)cc(S(=O)(=O)O)c4c3)c(S(=O)(=O)O)c-2oc2c(S(=O)(=O)O)c(NCc3cc(S(=O)(=O)O)c4cc(S(=O)(=O)O)cc(S(=O)(=O)O)c4c3)ccc12` [Compound 34], in series [1] (solvent PBS pH 7.4), the λabs is given as 530^b nm.

For the compound `CC1(C)c2c(cc3c4c2CCCN4CCC3)C(c2c(F)c(F)c(SCC(=O)O)c(F)c2F)=c2cc3c(cc21)=[N+](Cc1ccc(S(=O)(=O)O)cc1S(=O)(=O)O)CCC3` [Compound 36], the λabs in series [1] (solvent PBS pH 7.4) is recorded as 656^b nm. Also, the λfl in series [2] is 677^b nm.

In the case of `CN(C)c1ccc2c(c1)C(C)(C)C1=C/C(=[N+](/C)Cc3ccc(S(=O)(=O)O)cc3S(=O)(=O)O)C=CC1=C2c1c(F)c(F)c(F)c(F)c1F` [Compound 37], the λabs in series [1] (solvent PBS pH 7.4) is recorded as 642^b nm. Further, the λfl in series [2] is listed as 661^b nm.

For the compound `CN(C)c1ccc2c(c1)C(C)(C)c1cc3c(cc1=C2c1c(F)c(F)c(SCC(=O)O)c(F)c1F)CCC[N+]=3Cc1ccc(S(=O)(=O)O)cc1S(=O)(=O)O` [Compound 38], in series [1] (solvent PBS pH 7.4), the λabs is 646^b nm. Further, the λfl in series [2] was 667^b nm.

With `CN(C)c1ccc2c(c1)C(C)(C)c1cc3c(cc1=C2c1c(F)c(F)c(SCC(=O)O)c(F)c1F)C(CS(=O)(=O)O)CC(C)(C)[N+]=3Cc1ccc(S(=O)(=O)O)cc1S(=O)(=O)O` (stereo not shown) [Compound 39], in series [1] (solvent PBS pH 7.4), the λabs was 673^b nm. Also, in series [2], the λfl is given as 693^b nm.

On to `CC1(C)c2cc3c(cc2C(c2c(F)c(F)c(SCC(=O)O)c(F)c2F)=c2cc4c(cc21)=[N+](Cc1ccc(S(=O)(=O)O)cc1S(=O)(=O)O)C(C)(C)CC4CS(=O)(=O)O)C(CS(=O)(=O)O)=CC(C)(C)N3Cc1ccc(S(=O)(=O)O)cc1S(=O)(=O)O` (stereo not shown) [Compound 40], for which, in series [1] (solvent PBS pH 7.4), the λabs is reported as 699^b nm. Besides, the λfl in series [2] is given as 720^b nm.
